Assay results published in US20220008391A1, “NOVEL COMPOUNDS FOR CONTROLLING ARTHROPODS” (Bayer Animal Health GmbH, priority 2018, published 2022).
Converted amounts (≈) assume the structure as drawn.

Test: Measurement of solubility in buffer at pH 6.5
Type: physicochemical
Details: aqueous buffer, kinetic from dmso stock; PBS buffer pH 6.5, shaken 24h at rt, LC-MSMS; read-out: Solubility of example compounds at pH 6.5
Method: Measurement of Solubility in Buffer at pH 6.5 2-4 mg of the test compound are dissolved in DMSO to reach a concentration of 50 g/L (solution A). To 10 μl of this solution 960 μl PBS buffer pH 6.5 are added (final concentration: 515 μg/1); the mixture is shaken for 24h at rt in a 96 well plate. An aliquot is centrifuged at 42000 rpm für 30 min. The supernatant is diluted with acetonitrile/water (8:2) 1:10 and 1:1000 resp. This diluted samples are analyzed by LC-MSMS. Calibration: 10 μl of solution A are diluted with 823 μl DMSO (final concentration: 600 μg/ml), which is further diluted with acetonitrile/water 8:2 by a factor of 100 (provides solution B). The calibration curve is obtained from solution B by further diluting with acetonitrile/water 8:2 with target concentrations of 1.2-12-60-600 ng/ml and injecting these four solutions for MS measurement. PBS-Puffer: 6.18 g sodium chloride and 3.96 g sodium dihydrogen phosphate are dissolved in 1 L aqua dist., the pH is adjusted to 6.5 with 1N sodium hydroxide. The following conditions were used for quantification: Autosampler without auto inject ahead setting, column: Waters OASIS HLB, 2,1×20 mm, 25μ, column temperature: 30° C., flow rate: 2.5 mL/min, injected volume: 2 μl, Splitter (before MS) 1:20.

Row | Structure (SMILES) | solubility at 24 h
1 | Cn1nc(C(F)(F)C(F)(F)F)c(C(F)(F)F)c1-n1cc(-c2ccc(Cl)c(C(=O)N(COC(=O)OCC(=O)O)C3(C#N)CC3)c2)cn1 [Example 30, [({[{2-Chloro-5-[2′-methyl-5′-(pentafluoroethyl)-4′-(trifluoromethyl)-2′H-[1,3′-bipyrazol]-4-yl]benzoyl}(1-cyanocyclopropyl)amino]methoxy}carbonyl)oxy]acetic Acid] | 398 µg/mL (≈ 581 µM)
2 | Cn1nc(C(F)(F)C(F)(F)F)c(C(F)(F)F)c1-n1cc(-c2ccc(Cl)c(C(=O)N(COC(=O)OCCOC(=O)C3(C(=O)O)CC3)C3(C#N)CC3)c2)cn1 [Example 27, 1-[10-{2-Chloro-5-[2′-methyl-5′-(pentafluoroethyl)-4′-(trifluoromethyl)-2′H-[1,3′-bipyrazol]-4-yl]phenyl}-9-(1-cyanocyclopropyl)-6,10-dioxo-2,5,7-trioxa-9-azadecanan-1-oyl]cyclopropane-1-carboxylic Acid] | 147 µg/mL (≈ 188 µM)
3 | N#CC1(N(COC(=O)OCCOC(=O)C2(C(=O)O)CC2)C(=O)c2cc(-c3cnn(-c4c(Cl)cc(C(F)(C(F)(F)F)C(F)(F)F)cc4OC(F)(F)F)c3)ccc2Cl)CC1 [Example 13, 1-[10-(2-Chloro-5-{1-[2-chloro-4-(1,1,1,2,3,3,3-heptafluoropropan-2-yl)-6-(trifluoromethoxy)phenyl]-1H-pyrazol-4-yl}phenyl)-9-(1-cyanocyclopropyl)-6,10-dioxo 2,5,7-trioxa-9-azadecanan-1-oyl]cyclopropane-1-carboxylic Acid] | 7 µg/mL (≈ 7.96 µM)
4 | N#CC1(N(COC(=O)O[C@H]2CCC[C@@H]2OC(=O)/C=C/C(=O)O)C(=O)c2cc(-c3cnn(-c4c(Cl)cc(C(F)(C(F)(F)F)C(F)(F)F)cc4OC(F)(F)F)c3)ccc2Cl)CC1 [Example 10, (2E)-4-({(1S,2S)-2-[({[(2-chloro-5-{1-[2-chloro-4-(1,1,1,2,3,3,3-heptafluoropropan-2-yl)-6-(trifluoromethoxy)phenyl]-1H-pyrazol-4-yl}benzoyl)(1-cyanocyclopropyl)amino]methoxy}carbonyl)oxy]cyclopentyl}oxy)-4-oxobut-2-enoic Acid] | 3 µg/mL (≈ 3.31 µM)
5 | Cn1nc(C(F)(F)C(F)(F)F)c(C(F)(F)F)c1-n1cc(-c2ccc(Cl)c(C(=O)N(COC(=O)O[C@H]3CC[C@H](C(=O)O)CC3)C3(C#N)CC3)c2)cn1 [Example 24, Trans-4-[({[{2-Chloro-5-[2′-methyl-5′-(pentafluoroethyl)-4′-(trifluoromethyl)-2′H-[1,3′-bipyrazol]-4-yl]benzoyl}(1-cyanocyclopropyl)amino]methoxy}carbonyl)oxy]cyclohexane-1-carboxylic Acid] | 57 µg/mL (≈ 75.7 µM)
6 | N#CC1(N(COC(=O)O[C@H]2CCC[C@@H]2OC(=O)CCC(=O)O)C(=O)c2cc(-c3cnn(-c4c(Cl)cc(C(F)(C(F)(F)F)C(F)(F)F)cc4OC(F)(F)F)c3)ccc2Cl)CC1 [Example 11, 4-({(1S,2S)-2-[({[(2-chloro-5-{1-[2-chloro-4-(1,1,1,2,3,3,3-heptafluoropropan-2-yl)-6-(trifluoromethoxy)phenyl]-1H-pyrazol-4-yl}benzoyl)(1-cyanocyclopropyl)amino]methoxy}carbonyl)oxy]cyclopentyl}oxy)-4-oxobutanoic Acid] | 2 µg/mL (≈ 2.2 µM)
7 | CC(C)(COC(=O)CCC(=O)O)COC(=O)OCN(C(=O)c1cc(-c2cnn(-c3c(Cl)cc(C(F)(C(F)(F)F)C(F)(F)F)cc3OC(F)(F)F)c2)ccc1Cl)C1(C#N)CC1 [Example 5, 1-(2-Chloro-5-{1-[2-chloro-4-(1,1,1,2,3,3,3-heptafluoropropan-2-yl)-6-(trifluoromethoxy)phenyl]-1H-pyrazol-4-yl}phenyl)-2-(1-cyanocyclopropyl)-8,8-dimethyl-1,5,11-trioxo-4,6,10-trioxa-2-azatetradecan-14-oic Acid] | 2 µg/mL (≈ 2.2 µM)
8 | CC(C)(CC(=O)OCCOC(=O)OCN(C(=O)c1cc(-c2cnn(-c3c(Cl)cc(C(F)(C(F)(F)F)C(F)(F)F)cc3OC(F)(F)F)c2)ccc1Cl)C1(C#N)CC1)C(=O)O [Example 9, 1-(2-Chloro-5-{1-[2-chloro-4-(1,1,1,2,3,3,3-heptafluoropropan-2-yl)-6-(trifluoromethoxy)phenyl]-1H-pyrazol-4-yl}phenyl)-2-(1-cyanocyclopropyl)-12,12-dimethyl-1,5,10-trioxo-4,6,9-trioxa-2-azatridecan-13-oic Acid] | 5 µg/mL (≈ 5.58 µM)
9 | Cn1nc(C(F)(F)C(F)(F)F)c(C(F)(F)F)c1-n1cc(-c2ccc(Cl)c(C(=O)N(COC(=O)OCCOC(=O)CCCC(=O)O)C3(C#N)CC3)c2)cn1 [Example 28, 1-{2-Chloro-5-[2′-methyl-5′-(pentafluoroethyl)-4′-(trifluoromethyl)-2′H-[1,3′-bipyrazol]-4-yl]phenyl}-2-(1-cyanocyclopropyl)-1,5,10-trioxo-4,6,9-trioxa-2-azatetradecan-14-oic Acid] | 76 µg/mL (≈ 96.8 µM)

Next, values leading:

Row | solubility at 24 h | Structure (SMILES)
10 | 43 µg/mL (≈ 53 µM) | Cn1nc(C(F)(F)C(F)(F)F)c(C(F)(F)F)c1-n1cc(-c2ccc(Cl)c(C(=O)N(COC(=O)OCC(C)(C)COC(=O)/C=C/C(=O)O)C3(C#N)CC3)c2)cn1 [Example 39, (12E)-1-{2-chloro-5-[2′-methyl-5′-(pentafluoroethyl)-4′-(trifluoromethyl)-2′H-[1,3′-bipyrazol]-4-yl]phenyl}-2-(1-cyanocyclopropyl)-8,8-dimethyl-1,5,11-trioxo-4,6,10-trioxa-2-azatetradec-12-en-14-oic Acid]
11 | 16 µg/mL (≈ 20.1 µM) | N#CC1(N(COC(=O)OCCC(=O)O)C(=O)c2cc(-c3cnn(-c4c(Cl)cc(C(F)(C(F)(F)F)C(F)(F)F)cc4OC(F)(F)F)c3)ccc2Cl)CC1 [Example 36, 3-[({[(2-Chloro-5-{1-[2-chloro-4-(1,1,1,2,3,3,3-heptafluoropropan-2-yl)-6-(trifluoromethoxy)phenyl]-1H-pyrazol-4-yl}benzoyl)(1-cyanocyclopropyl)amino]methoxy}carbonyl)oxy]propanoic Acid]
12 | 168 µg/mL (≈ 232 µM) | Cn1nc(C(F)(F)C(F)(F)F)c(C(F)(F)F)c1-n1cc(-c2ccc(Cl)c(C(=O)N(COC(=O)OCC3(C(=O)O)CC3)C3(C#N)CC3)c2)cn1 [Example 31, 1-{[({[{2-Chloro-5-[2′-methyl-5′-(pentafluoroethyl)-4′-(trifluoromethyl)-2′H-[1,3′-bipyrazol]-4-yl]benzoyl}(1-cyanocyclopropyl)amino]methoxy}carbonyl)oxy]methyl}cyclopropane-1-carboxylic Acid]
13 | 41 µg/mL (≈ 49.8 µM) | Cn1nc(C(F)(F)C(F)(F)F)c(C(F)(F)F)c1-n1cc(-c2ccc(Cl)c(C(=O)N(COC(=O)O[C@H]3CC[C@@H](OC(=O)/C=C/C(=O)O)CC3)C3(C#N)CC3)c2)cn1 [Example 32, Cis-(2E)-4-({-4-[({[{2-Chloro-5-[2′-methyl-5′-(pentafluoroethyl)-4′-(trifluoromethyl)-2′H-[1,3′-bipyrazol]-4-yl]benzoyl}(1-cyanocyclopropyl)amino]methoxy}carbonyl)oxy]cyclohexyl}oxy)-4-oxobut-2-enoic Acid]
14 | 38 µg/mL (≈ 47 µM) | Cn1nc(C(F)(F)C(F)(F)F)c(C(F)(F)F)c1-n1cc(-c2ccc(Cl)c(C(=O)N(COC(=O)O[C@H]3CCC[C@@H]3OC(=O)/C=C/C(=O)O)C3(C#N)CC3)c2)cn1 [Example 42, (2E)-4-({(1S,2S)-2-[({[{2-Chloro-5-[2′-methyl-5′-(pentafluoroethyl)-4′-(trifluoromethyl)-2′H-[1,3′-bipyrazol]-4-yl]benzoyl}(1-cyanocyclopropyl)amino]methoxy}carbonyl)oxy]cyclopentyl}oxy)-4-oxobut-2-enoic Acid]
